Assay results as given in patent US20070110802A1, “Wet granulation process” (priority 2005, published 2007).

Experiments:
[1] = pH dependent aqueous solubility of Compound A; assay type: physicochemical
Description: The material was analyzed for hydrate formation.

Description for physchem: The pKa of a compound is determined experimentally or it can be calculated, such as with ACDLABS8.0 software.

solubility ([1]; water, pH 4, aqueous buffer): < 15 µg/mL
pKa (physchem): ~6.6
Structure (SMILES): Cc1c(Cl)cccc1S(=O)(=O)Nc1nc(CCN2CCOCC2=O)cs1 [Compound A, 3-chloro-2-methyl-N-(4-(2-(3-oxo-4-morpholinyl)ethyl)-1,3-thiazol-2-yl)benzenesulfonamide]
pH dependent solubility (FIG. 9) ([1]; solubility versus pH): solubility increases at a pH consistent with the approximate pKa value
